Results as given in patent publication EP3108900B1, “PROTOTYPE SYSTEMS OF THERANOSTIC BIOMARKERS FOR IN VIVO MOLECULAR MANAGEMENT OF CANCER” (EPOS-Iasis Research and Development, Ltd, priority 2015, dated 2016).
Where “and” joins values, the source holds several entries; their conditions need not be identical. Identical values can stand only once. Like-named read-outs stand apart in the source and are kept apart here.

How the values were obtained:
SW620 cells = assay: label-free temporal and quantitative pharmacoproteomics; type: cell-based
Description: The following experiment was performed to uncover new biomarkers of therapeutic response to the anticancer efficacy of the natural product based theranostic systems of the present invention.
In this experiment, SW620 cells were seeded in T75 flasks in DMEM, 10% FBS and 1% Penicillin/Streptomycin (all from Gibco). The cells were allowed to attach overnight. The following day the medium was removed and fresh medium containing 0.04 mM of either γT (γ-tocotrienol) or DCE-γT (diluted in absolute ethanol; final concentration of ethanol in the medium was 0.1% v/v). For control untreated cells, equal amount of fresh medium (containing ethanol at 0.1% v/v final concentration) was added.
SW620 cells were harvested after 24, 36 and 48 hrs of incubation with γT or DCE-γT. Briefly, the medium was removed and the cells were rinsed three times with PBS (without Ca, Mg) (Gibco). Fresh PBS was added and the cells were scraped off the flasks and collected in tubes. Collected cells were centrifuged at 1000rpm (165g) for 3min and the supernatant was removed. The cell pellet was re-suspended in PBS and the centrifugation step was repeated. The supernatant was removed and the cells in minimal residual PBS were snap-freezed in liquid nitrogen. Once frozen the cells were stored in -80°C until the proteomics analysis.
In terms of data analysis, a threshold of relative protein abundance equal or greater than 1.5-fold increase or decrease was set.

[1] = test system: colon cancer cells (SW480); assay: antiproliferative effect / cell viability; type: cell-based; conditions: control = no drug
Description: The antiproliferative effect of the following compounds A1F, B1F, C1F and D1F were tested on colon cancer cells (SW480). [drawing 94] [drawing 95]

[2] = in vivo biodistribution, quantitative fluorescence imaging
EGFR-Luc and Grb2-GFP = EGFR-Luc and Grb2-GFP (Homo sapiens, UniProt P00533); assay: BRET assay of EGFR-Luc and Grb2-GFP interaction; type: cell-based; conditions: interaction between EGFR-Luc and Grb2-GFP
[3] = target: T1, EGFR membrane tyrosine kinase receptor (Homo sapiens, UniProt P00533); assay: FRET assay in cells transfected with EGFR-Luc plasmid; type: cell-based; conditions: EGFR negative colon cancer cells transiently transfected with EGFR-Luc plasmid
T1 construct: expressed in transfected cells
Description: The fluorescent esters of the natural products disclosed herein can also be used as molecular probes for deciphering the interaction between the natural product and potential biomarkers in cancer cells. EGFR negative colon cancer cells were transiently transfected with a rationally designed EGFR-Luc plasmid and incubated with the DCE-γ-Tocotrienol ester. Bioluminescence of the Luciferase (donor) was assessed against the fluorescence signal of either the DCE-γ-Tocotrienol ester or the hydrolysis product (acceptor).

LoVo cells = assay: MTT colorimetric assay (antiproliferative efficacy); type: cell-based
[4] = SW620 cells, 0.04 mM, versus control untreated cells

**Q.** For CC(C)=CCC/C(C)=C/CC/C(C)=C/CC[C@]1(C)CCc2cc(O)c(C)c(C)c2O1 [γT, γ-tocotrienol, reference compound], which “decrease of protein level of histone H2B types” value (SW620 cells; [4]) is on record?
**A.** 1.8 fold

**Q.** And the “decrease of protein level of histone H3 types” value (SW620 cells; [4])?
**A.** at least 3.7 fold

**Q.** And the “decrease of protein level of hnRNPs” value (SW620 cells; [4])?
**A.** at least 2 fold

**Q.** What about the “decrease of protein level of snRNPs / certain snRNP components” value (SW620 cells; [4]) of the same compound?
**A.** 1.8 fold

**Q.** And the “increase of histone H2A.Z” value (SW620 cells; [4])?
**A.** 24 fold

**Q.** What about the “increase of the level of RNA helicases” value (SW620 cells; [4]) of the same compound?
**A.** ≥ 1.9 fold

**Q.** And the “increase of the level of certain snRNP components” value (SW620 cells; [4])?
**A.** ≥ 3 fold

**Q.** And the “increase of the level of transcription regulators/co-factors” value (SW620 cells; [4])?
**A.** ≥ 2 fold

**Q.** For C=CC(=O)Nc1cc2c(Nc3ccc(Br)cc3)ncnc2cc1NC(=O)CCl [A1F], which “viability of the cells with respect to the control” value (shortened to “viability of the cells”) [1] is on record?
**A.** reduce the viability of the cells

**Q.** Which “viability of the cells” value [1] does the source give for C=CC(=O)Nc1cc2c(Nc3ccc(C(C)(C)C)cc3)ncnc2cc1NC(=O)CCl [D1F] here?
**A.** reduce the viability of the cells

**Q.** With “dicarboxylic ester of γ-Tocotrienol [DCE-γT]” as the compound, how does the “time of peak of fluorescent signal” value ([2]; in vivo biodistribution, uptake as a function of time) read?
**A.** 30 min

**Q.** What about the “brain uptake / blood brain barrier passage” value ([2]; mouse brain parenchyma cells, data not shown) of the same compound?
**A.** able to pass the blood brain barrier

**Q.** And the “decrease of DNA repair factors” value (SW620 cells)?
**A.** 2 fold

**Q.** What about the “decrease of protein level of histone H3 types” value (SW620 cells) of the same compound?
**A.** at least 6 fold

**Q.** What about the “decrease of protein level of snRNPs / certain snRNP components” value (SW620 cells) of the same compound?
**A.** 2 fold

**Q.** What about the “increase of histone H2A.Z” value (SW620 cells) of the same compound?
**A.** 23 fold

**Q.** What about the “increase of histone H3 forms” value (SW620 cells) of the same compound?
**A.** ≥ 1.8 fold

**Q.** What about the “number of proteins whose expression was elicited” value (SW620 cells) of the same compound?
**A.** 37 proteins and 30 proteins and 29 proteins

**Q.** What about the protein modulation (SW620 cells) of the same compound?
**A.** statistically significant modulation of key proteins

**Q.** What about the “activation within the EGFR axis (BRET signals)” value (EGFR-Luc and Grb2-GFP) of the same compound?
**A.** neither the ester nor the hydrolysis products elicit any unwanted activation

**Q.** And the BRET signal [3]?
**A.** amplified FRET signal

**Q.** Which “viability of the cells” value [1] does the source give for C=CC(=O)Nc1cc2c(NCc3cccc4ccccc34)ncnc2cc1NC(=O)CCl [C1F] here?
**A.** reduce the viability of the cells

**Q.** For C=CC(=O)Nc1cc2c(Nc3ccc(C(C)C)cc3)ncnc2cc1NC(=O)CCl [B1F], which “viability of the cells” value [1] is on record?
**A.** reduce the viability of the cells

**Q.** With CC1(C)C(/C=C/C=C/C=C/C=C2\N(CCCCS(=O)(=O)O)c3ccc4ccccc4c3C2(C)C)=[N+](CCCCS(=O)(=O)[O-])c2ccc3ccccc3c21 [free cyanine dye, indocyanine green] as the compound, how does the antiproliferative efficacy (LoVo cells) read?
**A.** did not exhibit any antiproliferative effects
